Values of other authors in patent US11471445B2, “Compositions for the prevention and treatment of acute renal injury” (AKI Therapeutics ApS, priority 2017, dated 2022).
One block for each compound: values may come before it.

Experiments:
[1] = tested on: IRI; details: in vivo
[2] = tested on: hepatic IRI; details: rats, pretreatment
[3] = tested on: cerebral ischemia-reperfusion injury; details: mice
[4] = tested on: rat heart; details: pretreatment
[5] = 30 min after intravenous injection

Compound: COc1ccc([C@@H]2CC(=O)c3c(O)cc(O[C@@H]4O[C@H](CO[C@@H]5O[C@@H](C)[C@H](O)[C@@H](O)[C@H]5O)[C@@H](O)[C@H](O)[C@H]4O)cc3O2)cc1O [Hesperidin, hesperidin]
effect on IRI / ischemia [1]: protective effects on IRI in various organs

water solubility: very low water solubility
Compound: CC(C)[C@]12O[C@H]1[C@@H]1O[C@]13[C@]1(O[C@H]1C[C@H]1C4=C(CC[C@@]13C)C(=O)OC4)[C@@H]2O [Triptolide]

Compound: COc1ccc(-c2cc(=O)c3c(O)cc(O[C@@H]4O[C@H](CO[C@@H]5O[C@@H](C)[C@H](O)[C@@H](O)[C@H]5O)[C@@H](O)[C@H](O)[C@H]4O)cc3o2)cc1O [diosmin]
consequences of hepatic IRI [2]: ameliorates the consequences of IRI
effect on cerebral ischemia-reperfusion injury [3]: ameliorates the consequences of IRI
consequences of IRI in ex vivo rat heart [4]: ameliorates the consequences of IRI

Compound: triptolide-lysozyme conjugate: Triptolide conjugated to lysozyme by an ester linkage with a succinic acid spacer
renal concentration of conjugate relative to equivalent dose of drug [5]: 20 fold

Compound: β-escin
effect on IRI / ischemia [1]: ameliorates the effects of focal cerebral ischemia
